Experimental findings from patent US7632814B2, “HYD1 peptides as anti-cancer agents” (University of South Florida, priority 2006, dated 2009) are described below.

“Also recorded” adds a separate entry of the source. Where no end group is shown, it is not given here. [ ]: non-standard residue; d: D form.

The test system of experiment [1] is phospho Pyk2 in H929 cells. In words: Phospho-Pyk2 levels in suspension culture (immunoblot). It counts as cell-based. As to conditions: H929 cells cultured in suspension. The text has this: Based upon the observation that HYD1 increased melphalan induced apoptosis in suspension cultures, whether treatment with HYD1 inhibits phosphorylation of a downstream mediator of β1 integrin signaling (Pyk2) in suspension cultures was investigated.

Experiment [2] relates to H929 cells. Kind of experiment: Cell adhesion to fibronectin (crystal violet staining). In kind it is cell-based. As to conditions: varying concentrations, 30 minutes pre-incubation, 2 hours adhesion. As for the experimental part: FIGS. 30A and 30B are graphs showing that HYD1 but not the scrambled derivative HYD1S inhibited cell adhesion of both 8226 and H929 cells to FN. Varying concentrations of either HYD1, HYD1S, or a 1:100 dilution of either α4β1 or α5β1 integrin functional blocking antibodies was added to either (FIG. 30A) 8226 cell or (FIG. 30B) H929 cells for 30 minutes prior to adding cells to either FN or BSA coated wells. Cells were allowed to adhere for 2 hours and adherent cells were measured by crystal violet staining at 540 nm. Shown is the mean and standard deviation of a representative experiment performed in quadruplicate. Three independent experiments were performed and similar results were obtained.
Quantification of cell adhesion to fibronectin. Briefly, 8226 or H929 myeloma cells were pre-incubated with varying concentrations of either HYD1 or the scrambled peptide (HYD1S) for 30 minutes prior to allowing cells to attach to FN for two hours. Cell adhesion was detected by crystal violet staining as previously described (Damiano J S et al. Blood, 1999; 93:1658-1667; Hazlehurst L A et al. Oncogene, 2000; 19:4319-4327).

A further experiment deals with 8226 MM. Kind of experiment: SCID-Hu in vivo model, tumor burden by circulating lambda levels. The arrangement: species or system SCID mice. How it is done: 8226 cells (50,000 cells per mice) were engrafted into implanted human bone for 28 days. Following tumor engraftment, mice were treated with either 2 mg/Kg HYD1 or HYD1S (I.P. daily). Appropriate mice were treated with 1.5 mg/kg melphalan (mel) on day 29 and day […] (I.P. injections). Tumor burden was measured by lambda levels on day 28 and day 35 (n=3 mice per group).
Tumor burden was measured by circulating lambda levels. On day 28 (before drug treatment) measurements were recorded for each individual mouse and subsequent values obtained weekly are represented as a ratio of day 28 (day X/day 28). N=4 mice per group. HYD1 was administered I.P. at 2 mg/kg daily for 14 days (starting day 28). Melphalan was administered I.P. at 1.5 mg/kg on day 29 and 32.
SCID-Hu model. […] At 28 days, baseline tumor burden was quantified in the sera using either a lambda (8226) or kappa (H929) ELISA kit per manufacture instructions (Bethyl, Montgomery, Tex.) and mice were randomized into treatment groups. […] Tumor burden was assessed weekly by measuring kappa or lambda levels in the sera.
The SCID-Hu model consists of implanting human fetal bone into the mammary mouse fat pad of SCID mice. […] Human paraprotein can be measured in the mouse sera and levels represent a good marker for evaluating tumor burden and response to chemotherapy. […]

The subject of experiment [3] is H929 cells. In words: Electron microscopy of double membrane vesicles. It counts as cell-based. The conditions noted are these: 100 μg/ml, 4 hours. How it is done:
H929 cells were treated with either 100 µg/ml HYD1 (FIG. 24A) or HYD1S (FIG. 24B) for four hours and processed for electron microscopy as described in materials and methods.
Electron Microscopy. H929 cells were treated for four hours with either 100 μg/ml HYD1 or HYD1S. After peptide treatment, the samples were fixed overnight in 2.5% glutaraldehyde in 0.1M phosphate buffer, pH 7.2 overnight at four degrees. Following fixation, the cells were rinsed 2 times for 10 minutes each in 0.1M phosphate buffer, pH 7.2, at 4° C. The cells were loosely pelleted in microcentrifuge tubes at 500×G for 3 minutes. The buffer was removed from the cells and replaced with 1% osmium tetroxide in the above buffer at 4° C. The cells were resuspended and post-fixed for 1 hour, then loosely pelleted and rinsed in the above buffer. This step was repeated for a total of 3 rinses of 5 minutes each, with the cells being resuspended after each buffer change. Cells were dehydrated through a graded series of acetone, 30%, 50%, 70%, and 95% acetone in water, 5 minutes per change with loose pelleting at 750×G for 5 minutes, then resuspension for each step. The cells were then dehydrated through three changes of 100% acetone, 10 minutes per change, with a 5 minute pelleting step at 1000×G, followed by resuspension in each step. […]

“kikmviswkg ([dK][dI][dK][dM][dV][dI][dS][dW][dK]G) [HYD1]”: the “phospho Pyk2 levels” value in experiment [1] is on record as “reduces phospho Pyk2 levels”. Moreover, the “blocking of adhesion of H929 cells to the extracellular matrix FN” value with H929 cells [2] was “blocks adhesion of 8226 and H929 cells to the extracellular matrix FN in a dose dependent manner”. The “tumor burden (lambda levels), combination with melphalan” value with 8226 MM (8226, 2 mg/kg HYD1 I.P. daily with 1.5 mg/kg melphalan I.P.) is on record as “greatest reduction in tumor burden; also recorded: enhances melphalan induced cell death”. Further, the “tumor burden (circulating lambda levels, day X/day 28), single agent” value in the experiment with 8226 MM (8226, 2 mg/kg I.P. daily for 14 days starting day 28) is listed as “antitumor activity was detected; also recorded: reduces 8226 MM growth in vivo”. The “formation of double membranes / vesicles (EM)” value in the experiment with H929 cells [3] is on record as “increased formation of double membranes”.
